Test results published in US20240201170A1, “MAINTENANCE AND/OR CULTURE OF TISSUE SLICES IN VITRO OR EX VIVO” (NATIONAL UNIVERSITY OF SINGAPORE, priority 2021, published 2024).

Assays:
[1] = tested on: CD8+ cells in HNSCC tumour slices; test: Flow cytometry of granzyme B expression in CD8+ cells of drug-treated HNSCC patient tumour slices; assay type: cell-based, human
Experimental: Tumour slices were first manually removed from the hydrogel and digested. Dissociated cells were spun down, washed, and resuspended, and counted using a cell counter. Prior to fixing, cells were stained for surface proteins with fluorophore-conjugated antibodies and fixable dye. The cell suspension were then […]. Compensation was performed using single stains; live cells and singlets were gated by gating on a dye differentiating live and dead cells or on scatter characteristics or both.

[2] = tested on: cancer cells within HNSCC patient tumour slices; test: Cancer cell kill: pan-cytokeratin+ / cleaved caspase-3+ cells by dual IHC or IF in drug-treated tumour slices; assay type: cell-based, human
Experimental: H&E staining and dual IHC were performed on drug-treated and untreated HNSCC slices. Briefly, slices were fixed, processed using the automatic tissue processor, and embedded in paraffin. Paraffin blocks were sectioned and H&E staining was performed. Dual IHC was performed using ChromoPlex 1 Dual Detection (Leica DS9665) with a high pH EDTA-based buffer (ER2, Leica AR9640) for 20 min. A specific cocktail of antibodies was used to identify cancer cell apoptosis, including pan-cytokeratin and cleaved caspase-3 antibody. Standard immunofluorescence were performed with active YAP1. Image acquisition was done using the slide scanning system. The images were processed with a customized analysis profile using the nuclear segmentation method to quantify the percentage of apoptotic cancer cells.

| Molecule | granzyme B expression in CD8+ cells ([1]; Patient 6 (HN358), control 8.9%) [%] | granzyme B expression in CD8+ cells ([1]; Patient 7 (HN359), compared to control) | cleaved caspase-3 positivity (apoptotic) in cancer cells ([2]; Patient 6 (HN358), Day 2, controls ~11%) [%] | tumour kill in drug-treated slices ([2]; Patient 7 (HN359)) | apoptotic cancer cells ([2]; Patient 6 (HN358), controls ~5%) [%] |
| --- | --- | --- | --- | --- | --- |
| pembrolizumab | 5.2 | slight increase | ~25 | no enhanced tumour kill | – |
| N.N.[Cl][Pt][Cl] [cisplatin] | – | – | – | – | ~12 |
